# Reference: US6825230B2, “Spiro and dispiro 1,2,4-trixolane antimalarials” (Medicines for Malaria Venture MMV, priority 2002, dated 2004)
# Like-named read-outs stand apart in the source and are kept apart here.
# Experiments:
# [1] = test system: chloroquine-resistant K1 strain of P. falciparum; experiment: In vitro antimalarial semiautomated microdilution assay ([3H]-hypoxanthine incorporation), K1 strain; format: cell-based, Plasmodium falciparum; details: Plasmodium falciparum
# Method: (§1) Various OZ compounds were tested by the semiautomated microdilution assay against intraerythrocytic forms of Plasmodium falciparum derived from asynchronous stock cultures.
# (§2) Fifty percent inhibitory concentration (IC50) were estimated by Logit regression analysis.
# [2] = test system: chloroquine-sensitive NF54 strain of P. falciparum; experiment: In vitro antimalarial semiautomated microdilution assay ([3H]-hypoxanthine incorporation), NF54 strain; format: cell-based, Plasmodium falciparum; details: Plasmodium falciparum
# Method: as §1, §2
# [3] = test system: ANKA strain of P. berghei; experiment: Single dose STI in vivo screen in infected mice; design: species or system Plasmodium berghei; details: for Survival (days) 10 mg/kg po: single 10 mg/kg po in 3% ethanol and 7% Tween 80; for Survival (days) 10 mg/kg po / Survival (days) 10 mg/kg SSV po / Survival (days) 10 mg/kg sc: untreated 6-7 days; for Activity (%) 10 mg/kg po: single 10 mg/kg po in 3% ethanol and 7% Tween 80 on day 1 post-infection; for Activity (%) 10 mg/kg po / Activity (%) 10 mg/kg SSV po / Activity (%) 10 mg/kg sc / Activity (%) 3 mg/kg SSV po: percent reduction in parasitemia on day 3; for Survival (days) 10 mg/kg SSV po: single 10 mg/kg po in SSV; for Activity (%) 10 mg/kg SSV po: single 10 mg/kg po in standard suspending vehicle (SSV) on day 1 post-infection; for Survival (days) 10 mg/kg sc: single 10 mg/kg sc in 3% ethanol and 7% Tween 80; for Activity (%) 10 mg/kg sc: single 10 mg/kg sc in 3% ethanol and 7% Tween 80 on day 1 post-infection; for Survival (days) 3 mg/kg SSV po / Activity (%) 3 mg/kg SSV po: single 3 mg/kg po in SSV
# Method: In the single dose STI in vivo screen, Moro SPF or NMRI mice infected with the ANKA strain of P. berghei (groups of three mice) were treated on day one post-infection with trioxolanes dissolved or suspended in 3% ethanol and 7% Tween 80. […] SSV consists of 0.5% w/v CMC, 0.5% v/v benzyl alcohol, 0.4% v/v Tween 80, and 0.9% w/v sodium chloride in water. Antimalarial activity was measured by percent reduction in parasitemia on day three post-infection and survival times compared to an untreated control group. Survival to day 30 post-infection is considered to be a cure. […] Other factors influencing antimalarial activity include the stability of carbon radicals formed by β-scission subsequent to the initial electron transfer to the peroxide bond and the influence of steric effects remote from the peroxide bond on the interactions between carbon radicals and potential drug targets.
# Moro NMRI male mice (Fu Albino specific pathogen free) weighing 18±2 g were infected intravenously (i.v.) with 2×10^7 P. berghei ANKA strain-infected erythrocytes from donor mice on day 0 of the experiment. From donor mice with circa 30% parasitemia, heparinized blood was taken and diluted in physiological saline to 10^8 parasitized erythrocytes per ml. An aliquot (0.2 ml) of this suspension was injected i.v. into experimental and control groups of mice. […] Throughout the experiments, mice were kept in groups of three or five animals in Makrolon type II cages in an air-conditioned animal room at 22 to 23° C.
# They were administered per os (p.o.) in a total volume of 0.01 ml per gram of mouse. The activity of the compound was determined by a variety of methods outlined in subsequent sections. Survival time was also recorded, and survival to day 30 post-infection was considered to be a cure.
# [4] = K1, 72 h, read-out: IC50 (ng/ml) K1, chloroquine-resistant K1 strain, 72 h incubation
# [5] = NF54, 72 h, read-out: IC50 (ng/ml) NF54, chloroquine-sensitive NF54 strain, 72 h incubation
# [6] = chloroquine-resistant K1 strain, 72 h incubation, read-out: IC50 (ng/ml) K1
Structure (SMILES),"IC50 [1, 4]","IC50 [2, 5]",Survival (days) 10 mg/kg po [3],Activity (%) 10 mg/kg po [3],Survival (days) 10 mg/kg SSV po [3],Activity (%) 10 mg/kg SSV po [3],Survival (days) 10 mg/kg sc [3],Activity (%) 10 mg/kg sc [3],"IC50 [1, 6]",Survival (days) 3 mg/kg SSV po [3],Activity (%) 3 mg/kg SSV po [3],"IC50 ([2]; chloroquine-sensitive NF54 strain, 72 h incubation, read-out: IC50 (ng/ml) NF54)"
"CC1(C)C2CCC1(CS(=O)(=O)N1CCC3(CC1)OOC1(O3)C3CC4CC(C3)CC1C4)C(=O)C2 (stereo not drawn) [OZ91, Adamantane-2-spiro-3′-8′-[(1′S)-10′-camphorsulfonyl]-1′,2′,4′-trioxa-8′-azaspiro[4.5]decane]",1.4 ng/mL,0.42 ng/mL,5.7 days,20%,6.0 days,0%,7.3 days,85%,–,–,–,–
"CN(C)C(=O)N1CCC2(CC1)OOC1(O2)C2CC3CC(C2)CC1C3 (centres unmarked) [OZ133, Adamantane-2-spiro-3′-8′-[(dimethylamino)carbonyl]-1′,2′,4′-trioxa-8′-azaspiro[4.5]decane]",0.7 ng/mL,–,7.0 days,94%,7.3 days,97%,7.0 days,72%,–,–,–,–
N[C@H]1CC[C@]2(CC1)OOC1(O2)C2CC3CC(C2)CC1C3 (some centres unmarked) [OZ137],–,18 ng/mL,5.7 days,0%,6.3 days,6%,7.0 days,61%,–,–,–,–
C1CCC(NC2CCC3(CC2)OOC2(O3)C3CC4CC(C3)CC2C4)CC1 (centres unmarked) [OZ162],0.5 ng/mL,0.71 ng/mL,–,–,–,–,–,–,–,–,–,–
"CC(C)N(C(=O)N1CCC2(CC1)OOC1(O2)C2CC3CC(C2)CC1C3)C(C)C (centres unmarked) [OZ194, Adamantane-2-spiro-3′-8′-[(diisopropylamino)carbonyl]-1′,2′,4′-trioxa-8′-azaspiro[4.5]decane]",–,6.6 ng/mL,8.3 days,87%,8.0 days,73%,20.3 days,99.95%,–,–,–,–
CC(C)(C)CC(=O)N[C@H]1CC[C@]2(CC1)OOC1(O2)C2CC3CC(C2)CC1C3 (some centres unmarked) [OZ195],2.2 ng/mL,3.7 ng/mL,–,–,–,–,–,–,–,–,–,–
O=C1CCC(=O)N1C[C@H]1CC[C@]2(CC1)OOC1(O2)C2CC3CC(C2)CC1C3 (some centres unmarked) [OZ197],1 ng/mL,2 ng/mL,–,–,–,–,–,–,–,–,–,–
NCC[C@H]1CC[C@]2(CC1)OOC1(O2)C2CC3CC(C2)CC1C3 (some centres unmarked) [OZ229],0.24 ng/mL,0.23 ng/mL,–,–,–,–,–,–,–,–,–,–
O=C(NC[C@H]1CC[C@]2(CC1)OO[C@]1(O2)C2CC3CC(C2)CC1C3)c1cccnc1 [OZ273],–,–,–,–,11.7 days,99.58%,–,–,0.97 ng/mL,7.2 days,64%,–
CCOC(=O)NC[C@H]1CC[C@]2(CC1)OO[C@]1(O2)C2CC3CC(C2)CC1C3 [OZ289],–,–,–,–,13.4 days,99.94%,–,–,–,7.4 days,92%,0.56 ng/mL
NC(=O)CCNC[C@H]1CC[C@]2(CC1)OO[C@]1(O2)C2CC3CC(C2)CC1C3 [OZ319],0.41 ng/mL,0.91 ng/mL,–,–,–,–,–,–,–,–,–,–
O=CNCC(=O)NC[C@H]1CC[C@]2(CC1)OO[C@]1(O2)C2CC3CC(C2)CC1C3 [OZ322],–,–,–,–,10.0 days,98%,–,–,0.9 ng/mL,9.4 days,61%,–
N=C(N)NC(=O)C[C@H]1CC[C@]2(CC1)OO[C@]1(O2)C2CC3CC(C2)CC1C3 [OZ341],–,–,–,–,8.0 days,97%,–,–,–,7.0 days,32%,–
O=C(C[C@H]1CC[C@]2(CC1)OO[C@]1(O2)C2CC3CC(C2)CC1C3)N1CCS(=O)(=O)CC1 [OZ342],–,–,–,–,6.8 days,27%,–,–,–,6.4 days,0%,–
